Results from patent US10912741B2, “Prevention of liver cancer with safranal-based formulations” (United Arab Emirates University, priority 2019, dated 2021).

Assays:
Assay type in all cases: in vivo, albino Wistar rats
[1] = system: protein carbonyl (P. carbonyl); assay: Protein carbonyl content in liver homogenate, DEN/2-AAF hepatocarcinogenesis model; conditions: mean±SEM, 8 rats
Experimental: The experimental hepatocarcinogenesis model was developed according to a protocol by […] et al. that was adapted for our purposes. To initiate and promote hepatocarcinogenesis, diethylnitrosamine (DEN) and 2-acetylaminofluorene (2-AAF) were used, respectively. For hepatocarcinogenesis initiation in this model, a single DEN dose (200 mg/kg b.wt.) dissolved in saline was injected intraperitoneally. After initiation, all rats underwent one period of 5-days fasting, as mitotic proliferative stimuli. To promote hepatocarcinogenesis, 2-acetylaminofluorene (2-AAF) was introduced in the form of six daily intragastric doses (30 mg/kg in 1% Tween 80); two weeks after DEN treatment. […] at doses of 25 mg/kg by weight (b.wt.) and 50 mg/kg b.wt, was administrated orally to rats. These doses have been reported to suppress chemically-induced oxidative damage in rats. A total of 40 adult male albino Wistar rats were randomly divided into […] (n=8) and were subjected to different treatments. Group 1 (control) was orally administered distilled water (5 ml/kg b.wt.) throughout the experimental duration and were injected with a single dose of saline. Group 2 ([…] only) was subjected to a safranal dose (50 mg/kg b.wt.) through oral administration for the duration of the experimental period. Hepatocarcinogenesis was induced by DEN and promoted by 2-AAF, as reported previously, in group 3 (HCC). […] Glutathione (GSH) content was determined by analyzing liver homogenates, according to the method of Van Dooran et al. The assay depends on measuring yellow 5-thiol-2-nitrobenzoate absorbance at 412 nm. Glutathione-S-transferase (GST) activity was determined using the method of Habig et al. GST catalyzes the conjugation of GSH thiol group with 1-Chloro-2,4-dinitrobenzene (CDNB), which can be measured by determining the increase in absorbance at 340 nm. […] CAT decomposes hydrogen peroxide (H2O2) to oxygen and water; therefore, the activity of CAT was evaluated according to by the exponential decomposition of H2O2 at 240 nm. […] UV-160-Shimadzu recording spectrophotometer was used to record absorbances. […]

[2] = system: Ki-67; assay: Immunohistochemical staining of liver sections, Ki-67 (cell proliferation)
Experimental: (§1) The experimental hepatocarcinogenesis model was developed according to a protocol by Espandiaria et al. that was adapted for our purposes. To initiate and promote hepatocarcinogenesis, diethylnitrosamine (DEN) and 2-acetylaminofluorene (2-AAF) were used, respectively. For hepatocarcinogenesis initiation in this model, a single DEN dose (200 mg/kg b.wt.) dissolved in saline was injected intraperitoneally. After initiation, all rats underwent one period of 5-days fasting, as mitotic proliferative stimuli. To promote hepatocarcinogenesis, 2-acetylaminofluorene (2-AAF) was introduced in the form of six daily intragastric doses (30 mg/kg in 1% Tween 80); two weeks after DEN treatment.
(§2) Safranal at doses of 25 mg/kg by weight (b.wt.) and 50 mg/kg b.wt, was administrated orally to rats. These doses have been reported to suppress chemically-induced oxidative damage in rats. A total of 40 adult male albino Wistar rats were randomly divided into […] (n=8) and were subjected to different treatments. […]
(§3) For immunohistochemical staining, mounted sections were immersed in sodium citrate buffer (0.1 M, pH 6) and placed in a water bath for 15 minutes to unmask antigen epitopes. […] Ten fields were randomly selected to quantify positive cells, in individual samples (400×). […]

[3] = system: NF-kB-p65; assay: Immunohistochemical staining of liver sections, NF-kB-p65 positive cells; conditions: low/high doses of safranal, DEN-exposed rats, vs HCC group
Experimental: as §1, §2, §3

**Q.** For `CC1=C(C=O)C(C)(C)CC=C1` [Safranal, 2,6,6-trimethylcyclohexa-1,3-diene-1-carbaldehyde], which P.Carbonyl ([1]; HCC (DEN/2-AAF) rats + safranal high dose 50 mg/kg b.wt. oral, 12 weeks) is on record?
**A.** Its P.Carbonyl is 1.45 ± 0.06 nmol/mg protein.

**Q.** What about the P.Carbonyl ([1]; HCC (DEN/2-AAF) rats + safranal low dose 25 mg/kg b.wt. oral, 12 weeks) of the same compound?
**A.** The P.Carbonyl was 1.61 ± 0.06 nmol/mg protein.

**Q.** What about the P.Carbonyl ([1]; safranal alone 50 mg/kg b.wt. oral, no DEN (group 2)) of the same compound?
**A.** The P.Carbonyl was 1.52 ± 0.03 nmol/mg protein.

**Q.** And the “number of Ki-67 positive cells” value ([2]; low/high doses of safranal in animals exposed to DEN (groups 4-5))?
**A.** The value was “dramatically reduced the number of Ki-67 positive cells”.

**Q.** What about the “number of Ki-67-expressing hepatocytes” value ([2]; safranal alone (group 2)) of the same compound?
**A.** Its value is “did not induce a significant change”.

**Q.** What about the “number of NF-kB-p65-positive cells” value [3] of the same compound?
**A.** Its value is “significantly reduced the number of NF-kB-p65-positive cells”.
